According to the NIST ThermoML archive (doi:10.1016/j.jct.2012.06.010):
Numbers after ± are expanded uncertainties.

What was measured:
[1] = DTA
[2] = Molar enthalpy of transition or fusion; conditions: DSC
[3] = molar heat capacity at constant pressure; conditions: 101.33 kPa, Small sample (50 mg) DSC

O=C(O)c1cccnc1 [3-carboxylpyridine]
Conditions	Molar enthalpy of transition or fusion, [2] [kcal/mol]	Triple point temperature, [1] [K]
Crystal 1	6.74 ± 0.143	509.91 ± 0.39
Crystal 2	0.215 ± 0.0526	455 ± 0.5

[3]
Conditions	molar heat capacity at constant pressure [J/K/mol]
296.01 K, Crystal 2	139.9 ± 12
298.06 K, Crystal 2	141.2 ± 11
303.2 K, Crystal 2	144.2 ± 10
308.34 K, Crystal 2	147 ± 9.4
313.48 K, Crystal 2	149.4 ± 9.4
318.62 K, Crystal 2	152.3 ± 4.5
323.76 K, Crystal 2	154.8 ± 8.7
328.9 K, Crystal 2	156.5 ± 9.7
334.04 K, Crystal 2	158.2 ± 11
339.18 K, Crystal 2	159.8 ± 12
343.24 K, Crystal 2	160.4 ± 12
348.38 K, Crystal 2	163.3 ± 12
353.52 K, Crystal 2	165.9 ± 6.8
358.66 K, Crystal 2	167.9 ± 6.6
363.8 K, Crystal 2	170 ± 6.7
368.94 K, Crystal 2	171.5 ± 6.7
374.08 K, Crystal 2	173.2 ± 8.8
379.22 K, Crystal 2	175.4 ± 8.4
384.37 K, Crystal 2	177.6 ± 8
389.51 K, Crystal 2	179.4 ± 7.6
394.65 K, Crystal 2	181.2 ± 12
399.79 K, Crystal 2	183.5 ± 13
404.93 K, Crystal 2	185.8 ± 13
410.07 K, Crystal 2	189.4 ± 9.8
415.21 K, Crystal 2	194.3 ± 8.3
420.35 K, Crystal 2	198 ± 8.3
425.49 K, Crystal 2	201.7 ± 8.3
430.63 K, Crystal 2	205.3 ± 7.4
435.77 K, Crystal 2	212.1 ± 15
440.91 K, Crystal 2	219.1 ± 13
448.1 K, Crystal 2	231.3 ± 18
449.13 K, Crystal 2	240.6 ± 13
450.16 K, Crystal 2	254.7 ± 12
451.19 K, Crystal 2	273.6 ± 17
452.22 K, Crystal 2	292.5 ± 26
453.24 K, Crystal 2	334.7 ± 38
454.27 K, Crystal 2	418.6 ± 38
455.3 K, Crystal 2	440.3 ± 14
456.33 K, Crystal 1	382.6 ± 41
457.36 K, Crystal 1	326.3 ± 33
458.38 K, Crystal 1	297.2 ± 28
459.41 K, Crystal 1	280.2 ± 22
460.44 K, Crystal 1	263.1 ± 16
461.47 K, Crystal 1	251.7 ± 14
462.5 K, Crystal 1	245.7 ± 15
463.52 K, Crystal 1	239.8 ± 16
464.55 K, Crystal 1	235.7 ± 17
465.58 K, Crystal 1	233.6 ± 18
466.61 K, Crystal 1	231.4 ± 18
467.64 K, Crystal 1	229.5 ± 16
468.66 K, Crystal 1	227.8 ± 11
469.69 K, Crystal 1	226.1 ± 7.9
479.97 K, Crystal 1	231.6 ± 12
482.03 K, Crystal 1	232.2 ± 11
487.17 K, Crystal 1	233.6 ± 8.1
492.31 K, Crystal 1	235.1 ± 8.7
497.45 K, Crystal 1	237.2 ± 9.6
500.53 K, Crystal 1	245.9 ± 14
503.62 K, Crystal 1	254.7 ± 20
504.65 K, Crystal 1	280.5 ± 51
505.67 K, Crystal 1	306.3 ± 83
506.7 K, Crystal 1	422.7 ± 250
507.73 K, Crystal 1	1073.5 ± 1600
508.76 K, Crystal 1	7052.2 ± 11000
510.81 K, Liquid	1773.6
511.84 K, Liquid	309.8 ± 33
512.87 K, Liquid	307.2 ± 22
515.95 K, Liquid	307.4 ± 8.2
518.01 K, Liquid	308.6 ± 8.1
523.15 K, Liquid	311.5 ± 8.4
528.29 K, Liquid	314.4 ± 9.5
531.37 K, Liquid	316.2 ± 11
